Source: the supplement of paper PMC9334596
Structures can show the parent of a compound that is named as a salt.

Test system: mPer2Luc MEF
Test: PER2::LUC luminescence relative to vehicle control (fold of vehicle); higher = higher PER2::LUC reporter signal
Experimental: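 Secondary dose-response validation of 72 circadian-modulating compounds in mPer2Luc MEFs, threefold dilution series of six doses from 10 uM down to 0.04 uM. PER2::LUC luminescence read at 24 h and 30 h after treatment, normalised to vehicle (DMSO) control.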

[1] = time after treatment: 24-hour, concentration: 0.04μM
[2] = time after treatment: 24-hour, concentration: 0.37μM
[3] = time after treatment: 24-hour, concentration: 3.33μM
[4] = time after treatment: 24-hour, concentration: 10μM
[5] = time after treatment: 30-hour, concentration: 0.04μM
[6] = time after treatment: 30-hour, concentration: 0.37μM
[7] = time after treatment: 30-hour, concentration: 3.33μM
[8] = time after treatment: 30-hour, concentration: 10μM

Row | SMILES | PER2::LUC luminescence [1] | PER2::LUC luminescence [2] | PER2::LUC luminescence [3] | PER2::LUC luminescence [4] | PER2::LUC luminescence [5] | PER2::LUC luminescence [6] | PER2::LUC luminescence [7] | PER2::LUC luminescence [8]
1 | Cc1cccc(/C=N/Nc2cc(N3CCOCC3)n3nc(-c4ccncc4)cc3n2)c1 [APY0201] | 0.206 | 0.187 | 0.151 | 0.04 | 0.16 | 0.145 | 0.117 | 0.038
2 | CCOc1cc(C(=O)N2CCC(N3CCN(C)CC3)CC2)ccc1Nc1ncc2c(n1)N(C1CCCC1)c1ccccc1C(=O)N2C [XMD17-109] | 0.79 | 0.698 | 0.241 | 0.049 | 0.796 | 0.664 | 0.285 | 0.055
3 | Cc1ccc(-n2nc(C(C)(C)C)cc2NC(=O)Nc2ccc(OCCN3CCOCC3)c3ccccc23)cc1 [BIRB 796 (Doramapimod)] | 0.968 | 0.966 | 0.963 | 1.09 | 0.892 | 0.941 | 0.924 | 1.26
4 | CCOC(=O)c1ccc(N(C)c2csc(-c3ccccc3)n2)cc1 [Neuropathiazol] | 0.939 | 1 | 1.04 | 1.1 | 0.913 | 0.937 | 1 | 1.08
5 | Nc1ncnc2c1C(=O)N(c1ccc([C@H]3CC[C@H](CC(=O)O)CC3)cc1)CCO2 | 1.04 | 0.984 | 1 | 1 | 1.03 | 0.966 | 1.06 | 1.01
6 | CCc1cc2c(cc1N1CCC(N3CCOCC3)CC1)C(C)(C)c1[nH]c3cc(C#N)ccc3c1C2=O | 0.92 | 0.909 | 0.957 | 0.902 | 0.817 | 0.859 | 0.859 | 0.83
7 | Cc1ccc(NC(=O)c2cccc(N(C)C)c2)cc1NC(=O)c1ccc(O)cc1 | 0.95 | 0.979 | 1.07 | 1.36 | 0.924 | 0.932 | 1.01 | 1.65
8 | COc1cc(NC(=O)c2ccc(-c3ccc(Cl)cc3)o2)cc(OC)c1 | 0.886 | 0.894 | 0.888 | 0.875 | 0.83 | 0.878 | 0.95 | 0.864
9 | CN1CCc2c(c3ccccc3n2Cc2ccc(C(=O)NO)cc2)C1 [Tubastatin A HCl] | 1.07 | 1.05 | 1.05 | 0.699 | 0.984 | 0.982 | 0.916 | 0.576
10 | O=C(Nc1cccc(Cl)c1)c1ccccn1 | 1.06 | 1.28 | 1.51 | 1.81 | 1.06 | 1.29 | 1.57 | 1.92
11 | COc1ccccc1-c1cc(Nc2cccc(CS(N)(=O)=O)c2)ncn1 | 0.961 | 0.968 | 0.971 | 0.804 | 0.841 | 0.933 | 0.964 | 0.982
12 | Cc1cc2sc(NC(=O)Cc3ccccc3)nc2cc1Cl [LH-846] | 1.17 | 1.3 | 1.46 | 1.28 | 1.37 | 1.53 | 1.75 | 1.26
13 | Nc1nc(N)c2nc(-c3cccc(O)c3)cnc2n1 | 0.893 | 0.833 | 0.854 | 0.608 | 0.829 | 0.88 | 0.803 | 0.578
14 | O=c1cc(N2CCOCC2)oc2c(-c3cccc4c3sc3ccccc34)cccc12 | 0.952 | 0.951 | 1.05 | 1.07 | 0.952 | 0.931 | 1.08 | 1.09
15 | COc1cc(CCc2cc(NC(=O)c3ccc(N4CC(C)NC(C)C4)cc3)n[nH]2)cc(OC)c1 (stereo unspecified) [AZD4547] | 0.792 | 0.795 | 0.679 | 0.329 | 0.796 | 0.73 | 0.643 | 0.278
16 | Cc1nc(Nc2ncc(C(=O)Nc3c(C)cccc3Cl)s2)cc(N2CCN(CCO)CC2)n1 [Dasatinib] | 0.438 | 0.416 | 0.269 | 0.074 | 0.368 | 0.366 | 0.244 | 0.084
17 | CC(C)c1cnn2c(NCc3ccccc3)cc(NCCCCCCN)nc12 [BS-181] | 1.05 | 0.946 | 0.807 | 0.33 | 0.972 | 0.943 | 0.934 | 0.422
18 | CC1=C2C[C@H]3[C@@H](CC=C4C[C@@H](O)CC[C@@]43C)[C@@H]2CC[C@]12O[C@@H]1C[C@H](C)CN[C@H]1[C@H]2C [Cyclopamine] | 0.834 | 0.74 | 0.421 | 0.178 | 0.991 | 0.999 | 0.766 | 0.229
19 | CCN1CCN(Cc2ccc(NC(=O)Nc3ccc(Oc4cc(NC)ncn4)cc3)cc2C(F)(F)F)CC1 [AST 487] | 0.843 | 0.869 | 0.792 | 0.031 | 0.918 | 0.891 | 0.951 | 0.023
20 | CC(C)(C)c1ccc(-c2nc3ccccc3[nH]2)cc1 [ZLN005] | 0.223 | 0.131 | 0.076 | 0.065 | 0.357 | 0.204 | 0.098 | 0.075
21 | O=C(O)CCCCC(CCSCc1ccccc1)SCc1ccccc1 (stereo unspecified) [CPI-613] | 1 | 0.991 | 1.05 | 1.09 | 1.02 | 0.999 | 1.04 | 1.03
22 | CCc1nc(-c2cccc(C)c2)c(-c2ccnc(NC(=O)c3ccccc3)c2)s1 [TAK 715] | 0.993 | 0.95 | 0.955 | 0.895 | 0.926 | 0.929 | 0.924 | 0.888
23 | O=c1c(-c2ccc(O)cc2)coc2cc(O)ccc12 [Daidzein] | 1.01 | 0.97 | 1.1 | 1.3 | 0.995 | 1.04 | 1.11 | 1.59
24 | COc1cc(OC)cc(C(=O)Nc2ccc(Cl)c(-c3nc4ccc(N(C)C)cc4[nH]3)c2)c1 [HhAntag] | 1.03 | 1.07 | 1.03 | 1.12 | 0.988 | 1.04 | 1.12 | 1.44
25 | CC(C)NC[C@@H](C(=O)N1CCN(c2ncnc3c2[C@H](C)C[C@H]3O)CC1)c1ccc(Cl)cc1 [GDC-0068] | 0.898 | 0.743 | 0.674 | 0.481 | 0.917 | 0.776 | 0.619 | 0.434
26 | COc1cc(NS(C)(=O)=O)ccc1Nc1c2ccccc2nc2ccccc12 [Amsacrine] | 0.726 | 0.768 | 0.663 | 0.603 | 0.43 | 0.474 | 0.379 | 0.285
27 | CC(C)c1onc(-c2c(Cl)cccc2Cl)c1COc1ccc(/C=C/c2cccc(C(=O)O)c2)c(Cl)c1 [GW4064] | 1.04 | 1.08 | 1.24 | 1.88 | 1.08 | 1.1 | 1.32 | 2.19
